# Columns and labels:
# [1] = Study 1: single-escalating oral dose pharmacokinetics, incl. food effect (Phase 1); type: in vivo, human; settings: 50 to 800 mg, fed state
# Procedure: Study 1 was the first-in-human study that investigated the safety, tolerability, and PK of single-escalating doses of Compound 1, given orally, to healthy adult subjects. […] The data from this study were used for the selection of doses for Study 2.
# In Study 1, Compound 1 was administered to healthy adult subjects as a single PO dose of 2, 10, 50, 150, 400, or 800 mg in the fed state and 150 mg in the fasted state. Absorption occurred moderately late, achieving peak Cmax between 4 to 6 hours following dosing in the fed state.
# When Compound 1 was given in the fed state, median time to reach maximum plasma concentration (Tmax) occurred between 4 and 6 hours.
# As part of this single-dose escalation study, a food effect PK investigation was performed to examine Compound 1 exposures in both the fed and fasted states at the 150-mg dose level. A total of 6 subjects were administered 150 mg Compound 1 in each of these 2 dosing groups. Of these 6 subjects, 4 subjects received Compound 1 at the same dose in both fed and fasted states. […] Table 6 provides a summary of the PK parameters at the 150-mg dose level under both fed and fasted state conditions.
# PK parameters AUC0-∞ and Cmax were analyzed separately for dose proportionality for Compound 1 from 50 to 800 mg when administered in the fed state. […]
# [2] = Study 2 Part A: multiple-dose, dose-escalation pharmacokinetics (Phase 1, 14 days); type: in vivo, human; settings: after 2 weeks of dosing
# Procedure: The 2-part multiple-dose study, Study 2, determined the safety and tolerability of repeated daily doses of Compound 1 and investigated the effects on biomarkers of relevance for the treatment of alcohol dependence.
# PK were also evaluated in the multiple-dose, dose-escalation study, Study 2. In Part A of the study, subjects were divided into 3 cohorts and received 50, 150, or 200 mg Compound 1 or placebo for 14 consecutive days (at least 6 subjects received Compound 1 and 2 subjects received placebo in each cohort). […] All dosing occurred in the fed state. An assessment of diurnal cortisol levels, plus when under conditions of glucose clamp, were also carried out both prior to and during the dosing period.
# Consistent with the single-dose study (Study 1), concentrations appeared to decline in a bi-exponential manner, characterized by a rapid decrease within the first 24 hours. […] The Tmax appeared to be consistent across doses. Overall half-lives, weight normalized CL/F and V/F were consistent for 150 and 200 mg. However, the values for these latter 2 parameters were almost doubled at the 50-mg dose level. Variability (CV %) for apparent clearance and volume of distribution were large and not reduced with weight-normalization.
# Table 8 presents the results of the dose proportionality assessment for the AUC0-24 and Cmax over the tested dose range.
# [3] = molecular target: T1, CRF1 receptor (Homo sapiens, UniProt P34998); assay: Phase 2 study in adults with classic CAH: hormone response (ACTH, 17-OHP, androstenedione); type: in vivo
# T1 construct: from tissue; host or cells: in vivo, human patients (anterior pituitary corticotrophs)
# T1 sequence (P34998 24-415): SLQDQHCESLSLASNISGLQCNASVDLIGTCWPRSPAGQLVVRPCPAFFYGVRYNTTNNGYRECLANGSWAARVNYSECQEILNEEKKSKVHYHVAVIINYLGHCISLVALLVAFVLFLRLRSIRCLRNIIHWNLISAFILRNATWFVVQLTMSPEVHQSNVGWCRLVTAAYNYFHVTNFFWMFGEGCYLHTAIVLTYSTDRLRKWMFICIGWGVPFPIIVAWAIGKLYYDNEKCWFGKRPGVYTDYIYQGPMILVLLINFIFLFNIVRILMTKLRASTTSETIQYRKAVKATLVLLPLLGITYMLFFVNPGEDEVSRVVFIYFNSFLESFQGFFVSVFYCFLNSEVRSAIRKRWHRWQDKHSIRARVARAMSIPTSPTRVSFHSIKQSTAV
# Description: Cohort A of the Phase 2 Study includes a 6-week, multiple-dose, dose escalation study of Compound 1 for the treatment of adults with classic CAH. After screening, eligible patients will be enrolled into a 6-week treatment period followed by a 4-week washout/safety follow-up period.
# This cohort will be conducted in approximately 9 patients, who will receive Compound 1 daily for up to 6 weeks. Compound 1 will be administered as an oral daily dose. Patients will undergo titration of Compound 1 through three escalating dosage strengths at 2-week intervals. […]
# Patients in Cohort B will receive study drug at 200 mg BID, with a dose in the morning and a dose in the evening, either with a meal or consumption of a standardized snack. For Cohorts C and D, the dose level and the frequency and timing of dosing will be determined based on interim data from the previous cohorts. […]
# • 1. […] To assess the efficacy of Compound 1 in subjects with classic CAH as measured by percent and absolute change in 17-OHP compared to baseline.
# • 3. To explore the dose(s) of Compound 1 that cause pharmacodynamics changes in plasma concentrations of ACTH, androstenedione, and testosterone, as measured by the absolute and percent change from baseline by dose. • 4. […]
compound,measurement,setting,value
"CCC(CC)c1cc(C)nc2c(-c3sc(N4CCOCC4)nc3Cl)c(C)nn12 [Compound 1, 3-(4-Chloro-2-(morpholin-4-yl)thiazol-5-yl)-7-(1-ethylpropyl)-2,5-dimethylpyrazolo(1,5-a)pyrimidine]","AUC0-∞ increase for every doubling of dose, relative to dose proportionality",[1],1.74 times
same,"Cmax dose proportionality, in words",[1],more than dose proportional
same,Blood concentrations relative to steady state,[2],close to steady-state levels
same,subjects with 17-OHP within the guideline range after treatment,[3]; guideline range (1200 ng/dL),50%
same,morning rise in A4,[3]; patients with CAH,attenuates
